These results are taken from US20230165873A1, “Methods of Use for Single Molecule Compounds Providing Multi-Target Inhibition to Treat Covid 19” (priority 2020, published 2023).

A word on the IC50: it is the midpoint of a concentration-inhibition curve. What is called inhibition is the percentage by which the read-out fell short of the control. A low value points to a weak effect.

The subject of series [1] is SARS-CoV-2. In words: microbe, parasite or virus in culture. As to conditions: read-out: IC50 based on SARS-CoV-2 viral loads in culture supernatant. Type of series: cell-based.
The subject of series [2] is SARS-CoV-2. In words: microbe, parasite or virus in culture. As to conditions: for EC50: read-out: Median Effective Dose. Type of series: cell-based.
In series [3] the test system is SARS-CoV-2. Briefly: microbe, parasite or virus in culture. Type of series: cell-based. As to conditions: for EC50: read-out: Median Effective Dose. The source holds these as a separate data set.
The subject of series [4] is SARS-CoV-2. In words: microbe, parasite or virus in culture. As to conditions: for IC50: Severe acute respiratory syndrome coronavirus 2, HeLa-ACE2, read-out: IC50 inhibition of SARS-CoV-2 (viral plaques).
The test system of series [5] is SARS-CoV-2. In words: Cytopathic effect (CPE), CellTiter-Glo, SARS-CoV-2 infected UNCN1T cells. As to conditions: read-out: IC50 based on dose response curve by cytopathic effect (CPE), 24 hrs post-infection. Background: Cytopathic effects are the visible damage that an infection or toxin causes in cultured cells.
Series [6] relates to SARS-CoV-2. In words: SARS-CoV-2 viral load in culture supernatant (RT-QPCR), UNCN1T cells.
Series [7] deals with SARS-CoV-2. In words: microbe, parasite or virus in culture. Type of series: cell-based. As to conditions: read-out: IC50 based on dose response curve by cytopathic effect (CPE).
For a further series, the target named is mTOR (Homo sapiens, UniProt P42345). In words: mTOR in vitro inhibition. Type of series: biochemical. The method, then:
(§1) The kinase or bromodomain inhibitory activity of a compound of the invention can be determined by routine methods known to the skilled artisan without undue experimentation, or by procuring relevant analysis by a commercial vendor offering such services. […] In vivo, PI3K inhibition can be determined from target tissue biopsies by standard tissue processing in which cells are disrupted and Western Blot analysis is performed to determine the presence or absence of pAKT (substrate of PI3K) relative to a control sample. PI3K inhibition assays and BTK inhibition assays are known in the art and can be procured commercially through vendors such as Reaction Biology (Malvern, PA). The activity of a compound of the invention as an inhibitor of a bromodomain-containing protein, such as a BET protein, including BRD2, BRD3, BRD4, and/or BRDT, or an isoform or mutant thereof, may be determined in vitro, in vivo, or in a cell line. In vitro assays include assays that determine inhibition of bromodomain-containing proteins. Alternatively, inhibitor binding may be determined by running a competition experiment where a provided compound is incubated with a bromodomain-containing protein, such as a BET protein bound to known ligands, labeled or unlabeled. In vitro bromodomain inhibition assays can be performed using Alpha Screen Technology (Perkin Elmer Life and Analytical Sciences, Shelton, CT). In vivo bromodomain inhibition can be determined indirectly by evaluating the amount of a protein whose gene transcription is influenced or controlled by the bromodomain protein, for example, MYCN protein transcription is controlled by BRD4 (J.E. Delmore et al., Cell 2011, 146, 904-917; A. Puissant, Cancer Discov. 2013, 3, 308-323).
(§2) IC50 inhibition data against the indicated targets were determined for compounds of the invention using standard in vitro assays (Tables 8 and 9).

Series [8] has as its system mice carrying the Fli1 deletion. In words: Bleomycin-induced lung fibrosis in mice carrying the Fli1 deletion. Type of series: in vivo. As to conditions: 50 mg/kg on day 9, 12, 15 after intra-tracheal bleomycin 0.4 mg/kg; sacrifice day 21. The source says:
Bleomycin-induced lung fibrosis is the most frequently used rodent model for lung fibrosis, and inflammatory and fibrotic events similar to those seen in human pulmonary fibrosis (Am J Respir Cell Mol Biol. 2013 Aug; 49(2): 167-179; https://www.atsjournals.org/doi/full/10.1165/rcmb.2013-0094TR; PMID: 23526222). Systemic sclerosis (SSc) is manifested by vasculopathy, immune dysregulation and fibrosis of the skin and certain internal organs, especially lungs (Nat Commun. 2014; 5: 5797.; https://www.nature.com/articles/ncomms6797; PMID: 25504335). Friend leukemia integration 1 (Fli1) is a potent repressor of the type I collagen gene. […] Bleomycin was administered intra-tracheally to mice (0.4 mg/kg) and no drug was given during the inflammatory phase (8 days). […] IRS-1 is a component of the insulin signaling pathway which is involved in the increased collagen production by cells carrying the Fli1 deletion.

Series [9] concerns SARS-CoV-2. As to conditions: at effective anti-viral concentrations; Hela-ACE2 cells.
The next series addresses T1, BRD4-2 (Homo sapiens, UniProt O60885).
T1 construct: BRD4-2
Briefly: BRD4-2 in vitro inhibition. Type of series: binding.

The target in the next series is PI3K beta (Homo sapiens, UniProt P42338). In words: PI3K beta in vitro inhibition. Type of series: biochemical.
A further series concerns the target T2, BRD4-1 (Homo sapiens, UniProt O60885).
T2 construct: BRD4-1
Briefly: BRD4-1 in vitro inhibition. Type of series: binding.

The next series deals with BTK C481S (Homo sapiens, UniProt Q06187, C481S). In words: BTK C481S in vitro inhibition. Type of series: biochemical. The method, then:
as §1, §2

The next series addresses PI3K gamma (Homo sapiens, UniProt P48736). Briefly: PI3K gamma in vitro inhibition. Type of series: biochemical. As to conditions: IC50 inhibition PI3K gamma. The essentials:
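Half-maximal inhibition (IC50) is the reported value, derived from conventional biochemical testing that may be outsourced to a contract lab.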

In a further series the target is BTK (Homo sapiens, UniProt Q06187). In words: BTK in vitro inhibition. Type of series: biochemical. The method, then: as §1, §2
Setting [10] is: Severe acute respiratory syndrome coronavirus 2, 24 h.
Setting [11] is: Severe acute respiratory syndrome coronavirus 2, 48 h.
Where [12] appears, read: read-out: IC50 based on SARS-CoV-2 viral loads in culture supernatant, 24 hrs post-infection.
Where [13] appears, read: read-out: IC50 based on SARS-CoV-2 viral loads in culture supernatant, 48 hrs post-infection.

Read-outs that look alike come from different tables or passages of the source.

Sequence of PI3K beta (P42338 whole entry): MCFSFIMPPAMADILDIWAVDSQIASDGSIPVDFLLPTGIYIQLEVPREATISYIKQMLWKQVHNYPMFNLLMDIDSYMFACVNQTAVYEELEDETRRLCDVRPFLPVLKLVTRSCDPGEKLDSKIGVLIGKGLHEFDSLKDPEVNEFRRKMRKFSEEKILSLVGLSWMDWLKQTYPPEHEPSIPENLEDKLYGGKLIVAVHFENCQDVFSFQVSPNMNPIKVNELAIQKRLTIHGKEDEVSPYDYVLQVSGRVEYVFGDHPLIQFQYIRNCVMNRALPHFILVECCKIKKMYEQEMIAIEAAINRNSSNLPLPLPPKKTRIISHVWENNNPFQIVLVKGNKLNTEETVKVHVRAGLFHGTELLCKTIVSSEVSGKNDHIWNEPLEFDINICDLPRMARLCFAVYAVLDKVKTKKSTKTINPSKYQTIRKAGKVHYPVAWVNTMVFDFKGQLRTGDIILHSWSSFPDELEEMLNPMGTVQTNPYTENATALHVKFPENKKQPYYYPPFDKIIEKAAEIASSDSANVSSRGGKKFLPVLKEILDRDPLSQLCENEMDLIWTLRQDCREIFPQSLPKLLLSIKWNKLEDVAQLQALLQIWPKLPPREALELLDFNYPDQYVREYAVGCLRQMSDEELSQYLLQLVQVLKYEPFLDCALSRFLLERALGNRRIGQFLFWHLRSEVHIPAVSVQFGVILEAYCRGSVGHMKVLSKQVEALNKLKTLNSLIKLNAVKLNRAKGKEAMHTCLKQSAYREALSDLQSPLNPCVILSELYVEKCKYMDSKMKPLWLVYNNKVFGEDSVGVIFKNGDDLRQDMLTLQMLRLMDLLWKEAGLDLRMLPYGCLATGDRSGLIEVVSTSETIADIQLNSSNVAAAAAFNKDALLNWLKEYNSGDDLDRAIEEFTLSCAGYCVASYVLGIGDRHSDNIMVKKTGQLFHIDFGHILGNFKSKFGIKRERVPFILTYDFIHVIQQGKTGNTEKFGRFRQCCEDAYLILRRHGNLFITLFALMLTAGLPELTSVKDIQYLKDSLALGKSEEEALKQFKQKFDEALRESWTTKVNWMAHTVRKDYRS
Sequence of PI3K beta (P27986 whole entry partner): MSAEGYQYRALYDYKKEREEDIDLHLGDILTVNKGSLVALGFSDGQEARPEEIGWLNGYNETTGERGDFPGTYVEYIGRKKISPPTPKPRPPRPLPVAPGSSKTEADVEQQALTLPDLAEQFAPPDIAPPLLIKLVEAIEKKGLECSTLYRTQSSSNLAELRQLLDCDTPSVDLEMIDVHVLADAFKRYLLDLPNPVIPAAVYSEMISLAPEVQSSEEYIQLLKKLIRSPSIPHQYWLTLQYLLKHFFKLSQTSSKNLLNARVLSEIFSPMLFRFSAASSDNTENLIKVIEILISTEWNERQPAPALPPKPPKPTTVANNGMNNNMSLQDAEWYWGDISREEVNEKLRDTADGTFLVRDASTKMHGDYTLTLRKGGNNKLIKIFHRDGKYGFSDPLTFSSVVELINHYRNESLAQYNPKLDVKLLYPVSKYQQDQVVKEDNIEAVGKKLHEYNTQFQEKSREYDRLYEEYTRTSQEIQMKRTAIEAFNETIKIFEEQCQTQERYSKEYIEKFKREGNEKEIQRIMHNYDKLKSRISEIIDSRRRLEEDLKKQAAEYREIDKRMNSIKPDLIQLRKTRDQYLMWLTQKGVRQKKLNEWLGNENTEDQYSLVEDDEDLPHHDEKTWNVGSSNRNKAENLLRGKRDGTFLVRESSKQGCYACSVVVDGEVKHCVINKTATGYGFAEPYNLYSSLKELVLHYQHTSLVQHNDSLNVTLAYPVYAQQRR
Sequence of BTK (Q06187 whole entry): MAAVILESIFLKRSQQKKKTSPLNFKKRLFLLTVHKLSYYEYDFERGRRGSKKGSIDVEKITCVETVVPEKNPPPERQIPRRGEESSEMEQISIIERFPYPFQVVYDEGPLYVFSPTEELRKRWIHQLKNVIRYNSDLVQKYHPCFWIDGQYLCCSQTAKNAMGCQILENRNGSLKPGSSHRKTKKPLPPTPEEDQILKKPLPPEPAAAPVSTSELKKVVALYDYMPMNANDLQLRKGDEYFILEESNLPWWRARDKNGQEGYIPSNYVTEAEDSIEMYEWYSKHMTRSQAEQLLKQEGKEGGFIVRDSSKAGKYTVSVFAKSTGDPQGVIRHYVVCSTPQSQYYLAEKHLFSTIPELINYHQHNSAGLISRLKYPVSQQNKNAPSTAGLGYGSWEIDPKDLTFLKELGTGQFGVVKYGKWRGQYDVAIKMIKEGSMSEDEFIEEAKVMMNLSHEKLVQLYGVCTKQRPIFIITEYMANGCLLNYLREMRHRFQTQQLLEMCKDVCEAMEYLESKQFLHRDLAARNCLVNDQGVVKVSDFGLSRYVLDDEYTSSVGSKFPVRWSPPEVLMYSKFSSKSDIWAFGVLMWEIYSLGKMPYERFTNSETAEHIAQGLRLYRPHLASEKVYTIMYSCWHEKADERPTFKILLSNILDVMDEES
Sequence of BTK C481S (Q06187 whole entry C481S): as the sequence (Q06187 whole entry) above, with C481S counted along it
Sequence of PI3K gamma (P48736 whole entry): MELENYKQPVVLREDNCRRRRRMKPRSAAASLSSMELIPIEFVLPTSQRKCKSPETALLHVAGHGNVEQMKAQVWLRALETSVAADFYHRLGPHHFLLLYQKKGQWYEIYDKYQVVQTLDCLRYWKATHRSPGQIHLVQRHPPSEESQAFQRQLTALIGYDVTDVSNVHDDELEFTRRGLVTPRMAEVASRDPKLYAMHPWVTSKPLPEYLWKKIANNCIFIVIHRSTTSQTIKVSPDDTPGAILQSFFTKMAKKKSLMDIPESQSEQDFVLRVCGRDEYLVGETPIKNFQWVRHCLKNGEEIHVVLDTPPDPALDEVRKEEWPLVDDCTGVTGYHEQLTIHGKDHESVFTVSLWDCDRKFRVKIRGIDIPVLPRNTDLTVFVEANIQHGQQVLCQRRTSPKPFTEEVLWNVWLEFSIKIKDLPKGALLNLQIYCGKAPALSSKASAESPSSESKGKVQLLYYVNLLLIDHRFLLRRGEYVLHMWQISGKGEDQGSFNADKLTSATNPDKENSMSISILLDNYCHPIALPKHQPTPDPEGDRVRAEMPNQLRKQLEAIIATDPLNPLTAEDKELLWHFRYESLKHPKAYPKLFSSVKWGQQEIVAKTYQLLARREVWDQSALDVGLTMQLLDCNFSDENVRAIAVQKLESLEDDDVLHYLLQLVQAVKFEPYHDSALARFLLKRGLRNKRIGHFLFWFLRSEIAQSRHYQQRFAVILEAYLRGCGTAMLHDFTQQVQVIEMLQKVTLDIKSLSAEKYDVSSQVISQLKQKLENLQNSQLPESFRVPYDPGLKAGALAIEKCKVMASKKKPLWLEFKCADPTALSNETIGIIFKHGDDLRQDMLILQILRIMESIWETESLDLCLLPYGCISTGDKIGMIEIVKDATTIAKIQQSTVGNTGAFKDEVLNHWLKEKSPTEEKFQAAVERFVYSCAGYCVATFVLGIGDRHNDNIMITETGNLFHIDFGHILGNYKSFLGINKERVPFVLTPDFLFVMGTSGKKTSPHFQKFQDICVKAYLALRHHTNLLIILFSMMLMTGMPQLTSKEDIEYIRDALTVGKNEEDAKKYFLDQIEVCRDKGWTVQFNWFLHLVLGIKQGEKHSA

For the compound `CCC(CC)COC(=O)[C@H](C)N[P@](=O)(OC[C@H]1O[C@@](C#N)(c2ccc3c(N)ncnn23)[C@H](O)[C@@H]1O)Oc1ccccc1` [Remdesivir, reference compound], the IC50 in the series on SARS-CoV-2 [1] (setting [10]) stood at 1.03 µM; in the series on SARS-CoV-2 [1] (setting [11]) it was 0.76 µM; in the series on SARS-CoV-2 [4], 0.1 µM; with SARS-CoV-2 [5], 0.22 µM; in the series on SARS-CoV-2 [6] (setting [12]) it was 1.06 µM; in the series on SARS-CoV-2 [6] (setting [13]), 2.75 µM. Further, the IC50 was 2.24 µM in the series on SARS-CoV-2 [7] (setting [10]) and 4.6 µM in the series with SARS-CoV-2 [7] (setting [11]). In addition, the EC50 with SARS-CoV-2 [2] (setting [10]) is 0.272 µM; in the series with SARS-CoV-2 [3] (Severe acute respiratory syndrome coronavirus 2, Vero, 24 h) it was 0.533 µM. Also, the “dose reduction index (DRI)” value in the series on SARS-CoV-2 [2] (UNCN1T cells) is listed as 3.75; in the series with SARS-CoV-2 [3] (VERO-STAT1 KO cells at Fa 0.5), 2.35.
In the case of `O=c1cc(N2CCOCC2)oc2c(-c3ccc4c(c3)OCCO4)csc12` [Compound 0], the IC50 in the series with SARS-CoV-2 [1] (setting [10]) was 1.02 µM; in the series on SARS-CoV-2 [1] (setting [11]) it was 3.22 µM; against mTOR it was < 0.5 µM; at BRD4-2, 0.5 to 1 µM; on PI3K beta, < 0.5 µM; in the series on SARS-CoV-2 [4], 0.9 µM. For the same compound, the IC50 was < 0.5 µM against BRD4-1; 10 to 45 µM against BTK C481S; < 0.5 µM on PI3K gamma; 10 to 45 µM against BTK; 0.25 µM in the series on SARS-CoV-2 [5]; 1.52 µM in the series on SARS-CoV-2 [6] (setting [12]). Besides, the values for the 50% inhibitory concentration (IC50) in the series with SARS-CoV-2 [6] (setting [13]), with SARS-CoV-2 [7] (setting [10]) and in the series with SARS-CoV-2 [7] (setting [11]) were 1.58 µM, 1.8 µM and 4.4 µM, respectively. For the same compound, the EC50 turned out to be 1.84 µM in the series on SARS-CoV-2 [2] (Severe acute respiratory syndrome coronavirus 2, UNCN1T Cells, 24 hours post-infection) and 2.62 µM with SARS-CoV-2 [3] (Severe acute respiratory syndrome coronavirus 2, VERO STAT1 KO Cells, 24 hours post-infection). For the same compound, the “prevention of development of fibrosis (Masson Trichrome staining, tissue collagen content, Ashcroft score)” value in [8] is “remarkably effective in preventing the development of fibrosis”. In the series on SARS-CoV-2 [9], the cellular cytotoxicity entry is reported as “no cellular cytotoxicity is noted”. Besides, the inhibition at 2.4 µM with SARS-CoV-2 [4] (Severe acute respiratory syndrome coronavirus 2, HeLa-ACE2) came out at 94%.
